One assay concerns the target ErbB2 V777L (Homo sapiens (Human), UniProt P04626, V777L). Description: ErbB enzyme assay (CisBio HTRF-KinEASE-TK), ErbB2 V777L. In kind it is biochemical. As to the method: In vitro enzyme assays based on CisBio HTRF-KinEASE-TK technology were used to determine compound potencies. […] After another 1 h incubation at ambient temperature, the extent of substrate phosphorylation was determined using a PerkinElmer EnVision multimode plate reader via time-resolved fluorescence dual wavelength detection. The percent of control (POC) was calculated using the ratio of emission at […] to the emission at 620 nm. One hundred POC was determined using DMSO only controls (no test compounds present) and zero POC was determined using pre-quenched controls reactions. A 4-parameter logistic equation was fit to the POC values as a function of the test compound concentration and the IC50 value was determined as the point where the curve crossed 50 POC.
In general terms: Time-resolved FRET reads energy transfer from a long-lived donor to a nearby acceptor.

The target in another assay is EGFR WT (Homo sapiens (Human), UniProt P00533). Description: ErbB enzyme assay (CisBio HTRF-KinEASE-TK), EGFR WT. The format is biochemical. The note with it: ATP at Km (25 μM), 1 h incubation. Put shortly: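 Three-fold DMSO serial dilutions were added to kinase reactions and incubated 1 h at room temperature. Quench used 62.5 nM Sa-XL665 plus 0.25×TK-Ab-Cryptate in detection buffer, followed by another 1 h. Substrate phosphorylation was then measured by dual-wavelength HTRF.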
EGFR WT, sequence (P00533 25-1210): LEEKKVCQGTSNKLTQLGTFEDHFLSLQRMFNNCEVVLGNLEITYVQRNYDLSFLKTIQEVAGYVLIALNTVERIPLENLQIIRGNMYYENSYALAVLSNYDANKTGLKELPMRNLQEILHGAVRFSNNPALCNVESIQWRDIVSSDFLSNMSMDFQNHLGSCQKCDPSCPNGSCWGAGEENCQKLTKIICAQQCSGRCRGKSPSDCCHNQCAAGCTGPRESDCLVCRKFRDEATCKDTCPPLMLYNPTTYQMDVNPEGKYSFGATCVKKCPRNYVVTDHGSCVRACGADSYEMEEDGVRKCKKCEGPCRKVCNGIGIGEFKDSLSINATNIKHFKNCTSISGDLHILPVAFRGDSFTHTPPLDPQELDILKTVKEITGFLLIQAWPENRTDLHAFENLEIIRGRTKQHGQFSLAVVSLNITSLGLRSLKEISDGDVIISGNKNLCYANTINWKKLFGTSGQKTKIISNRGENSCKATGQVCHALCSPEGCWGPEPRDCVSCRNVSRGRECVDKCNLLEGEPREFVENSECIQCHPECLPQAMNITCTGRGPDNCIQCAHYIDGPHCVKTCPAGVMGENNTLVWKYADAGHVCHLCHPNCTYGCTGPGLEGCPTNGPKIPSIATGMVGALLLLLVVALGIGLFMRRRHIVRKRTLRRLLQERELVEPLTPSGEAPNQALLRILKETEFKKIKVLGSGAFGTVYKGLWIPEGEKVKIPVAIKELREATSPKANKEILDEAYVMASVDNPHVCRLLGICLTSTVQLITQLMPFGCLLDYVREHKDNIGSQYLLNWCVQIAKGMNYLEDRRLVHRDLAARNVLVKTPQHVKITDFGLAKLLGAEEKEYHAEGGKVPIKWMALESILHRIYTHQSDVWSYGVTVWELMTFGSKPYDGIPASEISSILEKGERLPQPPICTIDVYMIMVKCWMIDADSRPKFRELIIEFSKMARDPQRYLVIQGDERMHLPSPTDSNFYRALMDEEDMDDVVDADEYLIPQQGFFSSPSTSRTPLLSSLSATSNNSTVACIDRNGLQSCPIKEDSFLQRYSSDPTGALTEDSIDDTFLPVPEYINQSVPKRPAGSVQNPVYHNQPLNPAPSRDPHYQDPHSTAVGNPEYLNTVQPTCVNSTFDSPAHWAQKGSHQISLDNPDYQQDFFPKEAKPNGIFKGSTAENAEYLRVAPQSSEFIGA

The mark [1] stands for this setting: ErbB2 V777L enzyme, ATP at Km (110 μM), 1 h incubation.

Like-named read-outs stand apart in the source and are kept apart here.

ErbB2 V777L, sequence (P04626 23-1255 V777L): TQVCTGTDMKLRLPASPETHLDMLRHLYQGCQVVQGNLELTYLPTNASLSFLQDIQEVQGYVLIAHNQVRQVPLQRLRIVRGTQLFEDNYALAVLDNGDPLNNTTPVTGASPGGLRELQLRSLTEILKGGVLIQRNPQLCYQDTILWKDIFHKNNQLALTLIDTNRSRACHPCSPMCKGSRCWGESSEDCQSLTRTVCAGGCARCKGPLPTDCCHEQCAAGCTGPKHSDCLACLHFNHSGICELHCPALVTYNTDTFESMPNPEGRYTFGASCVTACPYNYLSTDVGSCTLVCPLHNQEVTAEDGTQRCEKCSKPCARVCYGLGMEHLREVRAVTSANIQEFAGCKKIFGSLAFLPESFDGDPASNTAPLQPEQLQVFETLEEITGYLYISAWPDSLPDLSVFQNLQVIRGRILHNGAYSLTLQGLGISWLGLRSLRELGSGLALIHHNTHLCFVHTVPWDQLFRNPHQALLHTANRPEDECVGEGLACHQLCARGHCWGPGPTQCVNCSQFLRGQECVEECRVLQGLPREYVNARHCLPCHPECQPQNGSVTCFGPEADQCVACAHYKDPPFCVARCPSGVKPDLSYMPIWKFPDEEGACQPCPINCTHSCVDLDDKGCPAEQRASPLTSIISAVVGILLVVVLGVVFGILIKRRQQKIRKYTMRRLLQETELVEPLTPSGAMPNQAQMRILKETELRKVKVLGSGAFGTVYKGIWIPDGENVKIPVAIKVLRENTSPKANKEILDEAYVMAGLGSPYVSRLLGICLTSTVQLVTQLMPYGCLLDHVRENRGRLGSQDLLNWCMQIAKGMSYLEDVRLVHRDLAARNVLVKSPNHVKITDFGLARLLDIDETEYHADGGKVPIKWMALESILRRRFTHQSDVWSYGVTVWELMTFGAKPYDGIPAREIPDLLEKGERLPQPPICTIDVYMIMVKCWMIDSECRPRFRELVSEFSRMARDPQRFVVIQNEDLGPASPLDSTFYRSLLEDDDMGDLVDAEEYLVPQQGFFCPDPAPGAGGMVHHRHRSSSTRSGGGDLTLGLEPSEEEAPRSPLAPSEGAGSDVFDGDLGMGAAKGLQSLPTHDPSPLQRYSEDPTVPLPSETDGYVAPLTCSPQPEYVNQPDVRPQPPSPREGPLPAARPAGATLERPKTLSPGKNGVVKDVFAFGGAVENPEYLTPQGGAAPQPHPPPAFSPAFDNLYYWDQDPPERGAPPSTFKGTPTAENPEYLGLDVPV

What is called IC50 is the concentration needed to halve the response being measured. High values mean a need for much substance, low ones inhibition by little substance. For `C=CC(=O)N1CCN(c2ncc3ncnc(Nc4ccc(Oc5ccc6c(c5)nnn6CC)c(C)c4)c3n2)CC1` [Compound 133, 1-(4-(8-((4-((1-ethyl-1H-benzo[d][1,2,3]triazol-5-yl)oxy)-3-methylphenyl)amino)pyrimido[5,4-d]pyrimidin-2-y1)piperazin-1-yl)prop-2-en-1-one], the IC50 lay in the range of 100 to 500 nM against ErbB2 V777L and 500 to 1000 nM against EGFR WT.

With `C=CC(=O)N[C@@H]1CCCCN(c2ccc3ncnc(Nc4ccc(Oc5ccc6c(c5)nnn6C)c(C)c4F)c3n2)C1` [Compound 289, (R)-N-(1-(4-((2-fluoro-3-methyl-4-((1-methyl-1H-benzo[d][1,2,3]triazol-5-yl)oxy)phenyl)amino)pyrido[3,2-d]pyrimidin-6-yl)azepan-3-yl)acrylamide], the results for the IC50 on ErbB2 V777L and on EGFR WT were 500 to 1000 nM and 100 to 500 nM, respectively.

Turning to `C=CC(=O)N(C)C1CN(c2ncc3ncnc(Nc4ccc(Oc5ccc6c(c5)nnn6C)c(C)c4)c3n2)C1` [Compound 26, N-methyl-N-(1-(8-((3-methyl-4-((1-methyl-1H-benzo[d][1,2,3]triazol-5-yl)oxy)phenyl)amino)pyrimido[5,4-d]pyrimidin-2-yl)azetidin-3-yl)acrylamide], the half-inhibitory concentration (IC50) at ErbB2 V777L and at EGFR WT was 100 to 500 nM each time.

For `C=CC(=O)N1CCN(c2ccc3ncnc(Nc4ccc(Oc5ccc6c(c5)nnn6C(F)F)c(C)c4)c3n2)CC1(C)C` [Compound 324, 1-(4-(4-((4-((1-(difluoromethyl)-1H-benzo[d][1,2,3]triazol-5-yl)oxy)-3-methylphenyl)amino)pyrido[3,2-d]pyrimidin-6-yl)-2,2-dimethylpiperazin-1-yl)prop-2-en-1-one], the IC50 on ErbB2 V777L and at EGFR WT was 100 to 500 nM throughout.

For `C=CC(=O)N1CCN(c2ncc3ncnc(Nc4ccc(Oc5ccc6c(c5)nnn6C)c(C)c4F)c3n2)CC[C@@H]1C` [Compound 169, (S)-1-(4-(8-((2-fluoro-3-methyl-4-((1-methyl-1H-benzo[d][1,2,3]triazol-5-yl)oxy)phenyl)amino)pyrimido[5,4-d]pyrimidin-2-y1)-7-methyl-1,4-diazepan-1-yl)prop-2-en-1-one], the IC50 against ErbB2 V777L was 100 to 500 nM; against EGFR WT, 500 to 1000 nM.

With `C=CC(=O)N1CCN(c2ncc3ncnc(Nc4ccc(Oc5ccc6c(c5)nnn6C)c(C)c4)c3c2F)CC1` [Compound 102, 1-(4-(5-fluoro-4-((3-methyl-4-((1-methyl-1H-benzo[d][1,2,3]triazol-5-yl)oxy)phenyl)amino)pyrido[3,4-d]pyrimidin-6-yl)piperazin-1-yl)prop-2-en-1-one], the half-maximal inhibitory concentration (IC50) against ErbB2 V777L lay within 100 to 500 nM; at EGFR WT, 500 to 1000 nM.

Turning to `C=CC(=O)N1CCCN(c2ccc3ncnc(Nc4ccc(Oc5ccc6c(c5)nnn6C)c(C)c4)c3n2)C[C@H]1C` [Compound 285, (R)-1-(2-methyl-4-(4-((3-methyl-4-((1-methyl-1H-benzo[d][1,2,3]triazol-5-yl)oxy)phenyl)amino)pyrido[3,2-d]pyrimidin-6-yl)-1,4-diazepan-1-yl)prop-2-en-1-one], the half-maximal inhibitory concentration (IC50) was 500 to 1000 nM against ErbB2 V777L and not below 1000 nM on EGFR WT.

For the molecule `C/C=C/C(=O)N1CCN(c2ncc3ncnc(Nc4ccc(Oc5ccc6c(c5)nnn6C)c(C)c4)c3n2)CC1` [Compound 34, (E)-1-(4-(8-((3-methyl-4-((1-methyl-1H-benzo[d][1,2,3]triazol-5-yl)oxy)phenyl)amino)pyrimido [5,4-d]pyrimidin-2-yl)piperazin-1-yl)but-2-en-1-one], the half-inhibitory concentration (IC50) against ErbB2 V777L was 100 to 500 nM; against EGFR WT it was not below 1000 nM.

As to `C=CC(=O)N(C)C1CN(c2ncc3ncnc(Nc4ccc(Oc5ccc6c(c5)nnn6C)c(C)c4F)c3n2)C1` [Compound 28, N-(1-(8-((2-fluoro-3-methyl-4-((1-methyl-1H-benzo[d][1,2,3]triazol-5-yl)oxy)phenyl)amino)pyrimido [5,4-d]pyrimidin-2-yl)azetidin-3-yl)-N-methylacrylamide], the IC50 on ErbB2 V777L and on EGFR WT was 100 to 500 nM each time.

Consider `C=CC(=O)N1CCN(c2ncc3ncnc(Nc4ccc(Oc5ccc6c(c5)nnn6C)c(C)c4)c3n2)[C@@H]2CC[C@H]21` [Compound 189, 1-((1R,6R)-5-(8-((3-methyl-4-((1-methyl-1H-benzo[d][1,2,3]triazol-5-yl)oxy)phenyl)amino)pyrimido[5,4-d]pyrimidin-2-y1)-2,5-diazabicyclo[4.2.0]octan-2-yl)prop-2-en-1-one], for which the figures for the half-inhibitory concentration (IC50) at ErbB2 V777L and against EGFR WT were 100 to 500 nM and 500 to 1000 nM, respectively.

On to `C=CC(=O)N[C@H]1[C@@H]2CC[C@H]1CN(c1ncc3ncnc(Nc4ccc(Oc5ccc6c(c5)nnn6C)c(C)c4)c3n1)C2` [Compound 205, N-((1R,5S,8r)-3-(8-((3-methyl-4-((1-methyl-1H-benzo[d][1,2,3]triazol-5-yl)oxy)phenyl)amino)pyrimido[5,4-d]pyrimidin-2-yl)-3-azabicyclo[3.2.1]octan-8-yl)acrylamide], for which the IC50 against ErbB2 V777L and against EGFR WT was not below 1000 nM each time.

`C=CC(=O)N1CCCN(c2ccc3ncnc(Nc4ccc(Oc5ccc6c(c5)nnn6C)c(C)c4)c3n2)CC1` [Compound 353, 1-(4-(4-((3-methyl-4-((1-methyl-1H-benzo[d][1,2,3]triazol-5-yl)oxy)phenyl)amino)pyrido[3,2-d]pyrimidin-6-yl)-1,4-diazepan-1-yl)prop-2-en-1-one]: the 50% inhibitory concentration (IC50) against ErbB2 V777L (setting [1]) was in the range of 100 to 500 nM.

At ErbB2 V777L (setting [1]), `C=CC(=O)N1CCN(c2ncc3ncnc(Nc4cc(C)c(Oc5cc(F)c6c(c5)nnn6C)cc4OC)c3n2)C[C@H]1C` [Compound 166, (R)-1-(4-(8-((4-((7-fluoro-1-methyl-1H-benzo[d][1,2,3]triazol-5-yl)oxy)-2-methoxy-5-methylphenyl)amino)pyrimido[5,4-d]pyrimidin-2-y1)-2-methylpiperazin-1-yl)prop-2-en-1-one] gave a half-inhibitory concentration (IC50) of 500 to 1000 nM.

As to `C=CC(=O)N[C@@H]1CCN(c2ccc3ncnc(Nc4ccc(Oc5ccc6c(c5)nnn6C)c(C)c4F)c3n2)C[C@H]1F` [Compound 287, N-((3R,4R)-3-fluoro-1-(4-((2-fluoro-3-methyl-4-((1-methyl-1H-benzo[d][1,2,3]triazol-5-yl)oxy)phenyl)amino)pyrido[3,2-d]pyrimidin-6-yl)piperidin-4-yl)acrylamide], the half-maximal inhibitory concentration (IC50) on EGFR WT lay within 100 to 500 nM.

`C=CC(=O)N[C@H]1C[C@H](C)CN(c2ncc3ncnc(Nc4ccc(Oc5ccc6c(c5)nnn6C)c(C)c4F)c3n2)C1` (single isomer, unassigned) [Compound 202] registered an IC50 against EGFR WT of 500 to 1000 nM.

`C=CC(=O)N1CCN(c2ncc3ncnc(Nc4ccc(Oc5ccc6c(c5)nnn6C(F)(F)F)c(C)c4)c3n2)C[C@H]1C` [Compound 195, (R)-1-(2-methyl-4-(8-((3-methyl-4-((1-(trifluoromethyl)-1H-benzo[d][1,2,3]triazol-5-yl)oxy)phenyl)amino)pyrimido[5,4-d]pyrimidin-2-yl)piperazin-1-yl)prop-2-en-1-one]: the IC50 against EGFR WT was 100 to 500 nM.

For `C=CC(=O)N1CCN(c2ccc3ncnc(Nc4ccc(Oc5cc(F)c6c(c5)nnn6C)c(C)c4F)c3n2)C[C@@H]1C1CC1` [Compound 292, (S)-1-(2-cyclopropyl-4-(4-((2-fluoro-4-((7-fluoro-1-methyl-1H-benzo[d][1,2,3]triazol-5-yl)oxy)-3-methylphenyl)amino)pyrido[3,2-d]pyrimidin-6-yl)piperazin-1-yl)prop-2-en-1-one], on EGFR WT, the IC50 lay in the range of 100 to 500 nM.

Turning to `[2H]C1([2H])N(C(=O)C=C)C([2H])([2H])C([2H])([2H])N(c2ncc3ncnc(Nc4ccc(Oc5ccc6c(c5)nnn6C)c(C)c4)c3n2)C1([2H])[2H]` [Compound 36, 1-(4-(8-((3-methyl-4-((1-methyl-1H-benzo[d][1,2,3]triazol-5-yl)oxy)phenyl)amino)pyrimido[5,4-d]pyrimidin-2-yl)piperazin-1-yl-2,2,3,3,5,5,6,6-d8)prop-2-en-1-one], the IC50 against EGFR WT is less than 50 nM.

Turning to `C=C(F)C(=O)N1C2CCC1CN(c1ccc3ncnc(Nc4ccc(Oc5ccc6c(c5)nnn6C)c(C)c4)c3n1)C2` [Compound 87, 2-fluoro-1-(3-(4-((3-methyl-4-((1-methyl-1H-benzo[d][1,2,3]triazol-5-yl)oxy)phenyl)amino)pyrido[3,2-d]pyrimidin-6-yl)-3,8-diazabicyclo[3.2.1]octan-8-yl)prop-2-en-1-one], the half-maximal inhibitory concentration (IC50) at EGFR WT was 500 to 1000 nM.

On to `C=CC(=O)N1CCN(c2ccc3ncnc(Nc4ccc(Oc5ccc6c(c5)nnn6C(F)F)c(C)c4F)c3n2)CC1(C)C` [Compound 322, 1-(4-(4-((4-((1-(difluoromethyl)-1H-benzo[d][1,2,3]triazol-5-yl)oxy)-2-fluoro-3-methylphenyl)amino)pyrido[3,2-d]pyrimidin-6-yl)-2,2-dimethylpiperazin-1-yl)prop-2-en-1-one], for which, on EGFR WT, the IC50 was 500 to 1000 nM.

`C=CC(=O)N[C@@H]1C[C@H](C)CN(c2ncc3ncnc(Nc4ccc(Oc5ccc6c(c5)nnn6C)c(C)c4F)c3n2)C1` (single isomer, unassigned) [Compound 203] gave an IC50 on EGFR WT not below 1000 nM.

With `C=CC(=O)N1CCN(c2ccc3ncnc(Nc4cc(C)c(Oc5ccn6ncnc6c5)cc4OC)c3n2)C[C@H]1C` [Compound 318, (R)-1-(4-(4-((4-([1,2,4]triazolo[1,5-a]pyridin-7-yloxy)-2-methoxy-5-methylphenyl)amino)pyrido[3,2-d]pyrimidin-6-yl)-2-methylpiperazin-1-yl)prop-2-en-1-one], the IC50 at EGFR WT is less than 50 nM.

The record behind these values is patent US20250129078A1, “ERBB2 INHIBITORS” (Cogent Biosciences, Inc., priority 2023, published 2025).
